Key:
COVID-19 = assay: Prospective observational cohort study of NAG in hospitalized COVID-19 patients vs retrospective control arm; format: in vivo
IL-6 = assay: Gene expression analysis (quantitative PCR) of IL-6 in primary human chondrocytes; format: cell-based; details: IL-1β, 1 or 10 mM, 24 hrs, FIG. 3
Description: (§1) Normal cartilage were obtained from autopsy services at the hospital of University of Virginia, approved by the Institutional Review Board. Articular cartilage were harvested from the femoral condyles and the tibial plateaus. Cartilage shavings were harvested at the operation room and placed in tissue culture medium (DMEM, 10% FBS, penicillin, streptomycin), and shipped to the laboratory at 4° C. Chondrocytes were isolated by incubation of the cartilage fragments with 0.01% collagenase NB4 (Fisher Scientific, Catalog No. 50-204-1257) for 4 hrs at 37° C. Cells were maintained in continuous monolayer cultures in DMEM containing 10% FBS. Experiments were performed with cells less than 3 passages. When necessary, trypsin were used for cell passage.
(§2) Cells, as prepared in the MATERIALS section, were seeded in a 24-well plate (3×10^5/well) and incubated with culture medium overnight. Cells were then treated with Compound 2 at various concentrations in DMEM containing 2% FBS (1 or 10 mM) for 24 hrs. […] Synthesis of cDNA from total RNA and the quantitative PCR were carried out by using the iscript™ cDNA synthesis kit and the iQ™ SYBR Green Supermix kit (Bio-Rad Laboratories, Hercules, CA), respectively. […] The threshold cycle (CT) value were calculated from amplification plots. Data were analyzed using the 2-ΔΔCT method with 18s rRNA serving as the reference. […]

COX-2 = assay: Gene expression analysis (quantitative PCR) of COX-2 in primary human chondrocytes; format: cell-based; details: IL-1β, 1 or 10 mM, 24 hrs, FIG. 4
Description: as §1, §2

[1] = NAG (n = 48) vs control (n = 100), univariate
[2] = multiple logistic regression, NAG (ref = control)

SMILES	Intubation, % (COVID-19; 700 mg NAG every 12 hours plus standard of care, NAG group n = 48)	ICU admission, odds ratio (COVID-19; [1])	Mortality, odds ratio (COVID-19; [1])	Poor clinical outcome, odds ratio (COVID-19; [1])	Intubation, odds ratio (COVID-19; NAG (n = 48) vs control (n = 100), univariate, Fisher's exact test)	Hospital LOS, Hodges-Lehmann difference (COVID-19; NAG (n = 48) vs control (n = 100), univariate, Mann-Whitney U test)	ICU admission, % (COVID-19; NAG group n = 48)	Poor clinical outcome (combined death/hospice initiation), % (COVID-19; NAG group n = 48)	Hospital LOS, median (COVID-19; NAG group n = 48, median (IQR) [range])	Hospice initiation, % (COVID-19; excludes patients that died, NAG n = 42)	Hospice initiation, odds ratio (COVID-19; excludes patients that died, NAG n = 42 vs control n = 72, univariate)	ICU admission, odds ratio (multivariate) (COVID-19; [2])	Poor clinical outcome rate, odds ratio (multivariate) (COVID-19; [2])	Hospital length of stay, β-coefficient (COVID-19; multivariate linear regression, NAG (ref = control))	ICU LOS, median (COVID-19; only patients admitted to the ICU, NAG n = 10)	ICU LOS, Hodges-Lehmann difference (COVID-19; only patients admitted to the ICU, NAG n = 10 vs control n = 36, univariate)	Duration of oxygen, Hodges-Lehmann difference (COVID-19; only patients that required oxygen support, NAG n = 46 vs control n = 86, univariate) [days]	Difference between control and NAG groups for intubation rates, hospital LOS, ICU admission, ICU LOS, duration of oxygen use, or hospice initiation (COVID-19; univariate analysis)	Expression of pro-inflammatory gene IL-6 (IL-6)	Expression of pro-inflammatory gene COX-2 (COX-2)
CC(=O)N[C@@H]1[C@@H](O)[C@H](O)[C@@H](CO)O[C@H]1O [NAG, N-((2R,3R,4R,5S,6R)-2,4,5-trihydroxy-6-(hydroxymethyl)-tetrahydro-2H-pyran-3-yl)acetamide]	(16.7%)	0.53	0.37	0.30	0.60	0.0	(22.9%)	(12.5%)	7	(0%)	0.00	0.32	0.30	−4.27	2.5	4.0	0.0	no significant differences	–	–
CC(=O)N[C@H]1[C@H](O)O[C@H](C)C[C@@H]1O [Cpd 2, 2-(acetylamino)-2,4,6-trideoxy-β-D-glucopyranose]	–	–	–	–	–	–	–	–	–	–	–	–	–	–	–	–	–	–	dose-dependent inhibition	dose-dependent inhibition

From US20230346816A1, “COMPOUNDS AND METHODS FOR TREATING VIRAL INFECTION” (priority 2020, published 2023)
